How the values were obtained:
BTK WT = BTK WT (Homo sapiens, UniProt Q06187); assay: Btk cell-free kinase assay, BTK WT protein; format: biochemical; details: compound 30 mins at room temperature, then 100 μM ATP 20 min at 37° C.
Description: (§1) The BTK wild-type plasmid and the BTK mutant plasmid (C481S) were respectively transfected into SF9 cells (purchased from invitrogen), and after three generations of virus amplification, the P3-generation virus was used to transfect SF9 cells which were collected after 72-hour culture to obtain protein BTK WT and protein BTK C481S, which were then purified.

BTK C481S = biological target: T1, BTK C481S (Homo sapiens, UniProt Q06187, C481S); assay: Btk cell-free kinase assay, BTK C481S mutant protein; format: biochemical; details: compound 30 mins at room temperature, then 100 μM ATP 20 min at 37° C.
T1 construct: made in house; host or cells: SF9 insect cells
Description: as §1

[1] = tested on: acute myelocytic leukemia cell strains HL-60; assay: Cell proliferation (Cell Titer-Glo), HL60; format: cell-based; details: Homo sapiens, HL60, 72 hours, read-out: Effects on cell proliferation (GI50)
Experimental: (§2) The selectivity of Compound 1 in inhibiting the proliferation of cancer cells was further evaluated by testing the effect of Btk inhibitors on the growth of cancer cells. […]
(§3) In this example different concentrations (0.000508 μM, 0.00152 μM, 0.00457 μM, 0.0137 μM, 0.0411 μM, 0.123 μM, 0.370 μM, 1.11 μM, 3.33 μM, 10 μM) of Compound 1 and Compound 6 were respectively added into the above cells which were then cultured for 72 hours. The number of viable cells was determined via quantitative determination of ATP in living cells by using Cell Titer-Glo® (Promega, the USA) Chemical Luminescent Cell Viability Assay kit.

[2] = tested on: acute myeloid leukemia cell lines U937; assay: Cell proliferation (Cell Titer-Glo), U937; format: cell-based; details: Homo sapiens, U-937; U937, 72 hours; read-out: Effects on cell proliferation (GI50)
Experimental: as §2, §3

[3] = tested on: acute myeloid leukemia cell lines MOLM13; assay: Cell proliferation (Cell Titer-Glo), MOLM13; format: cell-based; details: Homo sapiens, MOLM-13; MOLM13, 72 hours; read-out: Effects on cell proliferation (GI50)
Experimental: as §2, §3

[4] = tested on: acute myeloid leukemia cell lines M-07e; assay: Cell proliferation (Cell Titer-Glo), M-07e; format: cell-based; details: 72 hours, read-out: Effects on cell proliferation (GI50)
Experimental: as §2, §3

[5] = tested on: acute myeloid leukemia cell lines MV4-11; assay: Cell proliferation (Cell Titer-Glo), MV4-11; format: cell-based; details: Homo sapiens; MV4-11, 72 hours; read-out: Effects on cell proliferation (GI50)
Experimental: as §2, §3

[6] = tested on: acute myeloid leukemia cell lines MOLM16; assay: Cell proliferation (Cell Titer-Glo), MOLM-16; format: cell-based; details: MOLM-16, 72 hours, read-out: Effects on cell proliferation (GI50)
Experimental: as §2, §3

[7] = tested on: acute promyelocytic leukemia cell line NB-4 (Lu+); assay: Cell proliferation (Cell Titer-Glo), NB4; format: cell-based; details: NB4, 72 hours; read-out: Effects on cell proliferation (GI50)
Experimental: as §2, §3

[8] = tested on: MDS-RAEB cell lines SKM-1; assay: Cell proliferation (Cell Titer-Glo), SKM-1; format: cell-based; details: Homo sapiens; SKM-1, 72 hours; read-out: Effects on cell proliferation (GI50)
Experimental: as §2, §3

[9] = tested on: diffuse large B-cell lymphoma cell lines Pfeiffer; assay: Cell proliferation (Cell Titer-Glo), Pfeiffer; format: cell-based; details: Homo sapiens, 72 hours, read-out: Effects on cell proliferation (GI50)
Experimental: as §2, §3

[10] = tested on: diffuse large B-cell lymphoma cell line OCI-LY10; assay: Cell proliferation (Cell Titer-Glo), OCI-LY10; format: cell-based; details: Homo sapiens; OCI-LY10, 72 hours; read-out: Effects on cell proliferation (GI50)
Experimental: as §2, §3

[11] = tested on: diffuse histiocytic lymphoma cells SU-DHL-2; assay: Cell proliferation (Cell Titer-Glo), SU-DHL-2; format: cell-based; details: Homo sapiens; SU-DHL-2, 72 hours; read-out: Effects on cell proliferation (GI50)
Experimental: as §2, §3

[12] = biological target: T2, TEL-BLK-BaF3 cells (stably expressing TEL-BLK activated kinase) (Homo sapiens, UniProt P51451); assay: Cell proliferation (Cell Titer-Glo), BaF3-tel-BLK; format: cell-based; details: BaF3-tel-BLK (mouse BaF3 cells), 72 hours; read-out: Effects on cell proliferation (GI50)
T2 construct: expressed in transfected cells; host or cells: mouse BaF3 cells, retroviral MSCV-Puro; the other entry of the earlier key: ETV6 (P41212, Transcription factor ETV6)
Experimental: as §2, §3

[13] = biological target: T3, TEL-EGFR-BaF3 (stably expressing TEL-EGFR activated kinase) (Homo sapiens, UniProt P00533); assay: Cell proliferation (Cell Titer-Glo), BaF3-tel-EGFR; format: cell-based; details: BaF3-tel-EGFR (mouse BaF3 cells), 72 hours; read-out: Effects on cell proliferation (GI50)
T3 construct: expressed in transfected cells; host or cells: mouse BaF3 cells, retroviral MSCV-Puro; the other entry of the earlier key: ETV6 (P41212, Transcription factor ETV6)
Experimental: as §2, §3

[14] = biological target: T4, TEL-LYN-BaF3 cells (stably expressing TEL-LYN activated kinase) (Homo sapiens, UniProt P07948); assay: Cell proliferation (Cell Titer-Glo), BaF3-tel-LYN; format: cell-based; details: BaF3-tel-LYN (mouse BaF3 cells), 72 hours; read-out: Effects on cell proliferation (GI50)
T4 construct: expressed in transfected cells; host or cells: mouse BaF3 cells, retroviral MSCV-Puro; the other entry of the earlier key: ETV6 (P41212, Transcription factor ETV6)
Experimental: as §2, §3

T2 sequence (P51451 241-494 limits assumed): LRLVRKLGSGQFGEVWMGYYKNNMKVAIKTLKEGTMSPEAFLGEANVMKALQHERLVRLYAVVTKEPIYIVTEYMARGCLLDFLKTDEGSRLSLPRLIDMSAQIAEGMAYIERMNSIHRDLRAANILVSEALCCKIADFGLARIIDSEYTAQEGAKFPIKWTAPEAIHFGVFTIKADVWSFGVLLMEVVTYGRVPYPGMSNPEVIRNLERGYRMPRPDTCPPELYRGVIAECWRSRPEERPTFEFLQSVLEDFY
Chain of BTK WT (Q06187 whole entry): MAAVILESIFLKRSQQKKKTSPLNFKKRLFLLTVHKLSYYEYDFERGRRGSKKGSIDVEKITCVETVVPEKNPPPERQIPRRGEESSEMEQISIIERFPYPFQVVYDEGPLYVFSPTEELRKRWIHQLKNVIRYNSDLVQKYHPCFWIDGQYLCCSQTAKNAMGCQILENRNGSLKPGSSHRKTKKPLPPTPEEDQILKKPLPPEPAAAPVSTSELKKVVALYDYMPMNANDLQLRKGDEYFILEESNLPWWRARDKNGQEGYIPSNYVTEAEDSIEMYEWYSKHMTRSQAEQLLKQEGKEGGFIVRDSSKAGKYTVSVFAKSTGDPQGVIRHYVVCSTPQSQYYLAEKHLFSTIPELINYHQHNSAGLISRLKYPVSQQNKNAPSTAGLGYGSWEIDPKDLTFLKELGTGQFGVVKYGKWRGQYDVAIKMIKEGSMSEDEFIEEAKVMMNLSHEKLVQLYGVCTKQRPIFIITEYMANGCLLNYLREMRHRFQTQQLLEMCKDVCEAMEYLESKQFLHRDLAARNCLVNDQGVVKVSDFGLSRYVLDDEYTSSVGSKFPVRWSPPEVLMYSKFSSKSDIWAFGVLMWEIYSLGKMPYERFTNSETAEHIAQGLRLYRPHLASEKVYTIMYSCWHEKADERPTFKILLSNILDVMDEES
T1 sequence (Q06187 whole entry C481S): as the sequence (Q06187 whole entry) above, with C481S counted along it
T4 sequence (P07948 247-501 limits assumed): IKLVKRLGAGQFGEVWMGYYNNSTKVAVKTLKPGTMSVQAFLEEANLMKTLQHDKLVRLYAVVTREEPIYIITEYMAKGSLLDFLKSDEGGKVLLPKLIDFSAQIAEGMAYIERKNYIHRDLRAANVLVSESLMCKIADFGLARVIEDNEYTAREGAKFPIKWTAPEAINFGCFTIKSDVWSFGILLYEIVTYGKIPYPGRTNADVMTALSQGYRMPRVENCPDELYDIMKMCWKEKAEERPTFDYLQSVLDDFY
T3 sequence (P00533 712-979 limits assumed): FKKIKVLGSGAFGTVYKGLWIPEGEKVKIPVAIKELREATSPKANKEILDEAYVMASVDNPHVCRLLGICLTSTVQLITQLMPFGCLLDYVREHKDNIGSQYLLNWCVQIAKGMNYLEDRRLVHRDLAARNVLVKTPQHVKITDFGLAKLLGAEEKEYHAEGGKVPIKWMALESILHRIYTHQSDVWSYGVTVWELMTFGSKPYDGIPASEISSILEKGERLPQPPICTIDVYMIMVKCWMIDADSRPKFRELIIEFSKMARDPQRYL

| inhibitory effects against BTK WT (BTK WT) | inhibitory effects against BTK C481S (BTK C481S) | GI50 [1] [µM] | GI50 [2] [µM] | GI50 [3] [µM] | GI50 [4] [µM] | GI50 [5] [µM] | GI50 [6] [µM] | GI50 [7] [µM] | GI50 [8] [µM] | GI50 [9] [µM] | GI50 [10] [µM] | GI50 [11] [µM] | GI50 [12] [µM] | GI50 [13] [µM] | GI50 [14] [µM] | EC50 (BTK WT; read-out: EC50 against BTK WT protein) [µM] | EC50 (BTK C481S; read-out: EC50 against BTK C481S) [µM] | Structure (SMILES) |
| --- | --- | --- | --- | --- | --- | --- | --- | --- | --- | --- | --- | --- | --- | --- | --- | --- | --- | --- |
| no inhibitory effects | no inhibitory effects | > 10 | > 10 | 4 | > 10 | 4.8 | > 10 | > 10 | > 10 | > 10 | 3 to 10 | > 10 | 5.4 | 7.6 | 6.8 | – | – | CCC(=O)Nc1cc(Nc2cc(-c3cccc(NC(=O)c4ccc(C(C)(C)C)cc4)c3C)cn(C)c2=O)ccc1C(=O)N1CCOCC1 [Compound 6, N-(3-(5-((3-propanamide-4-(morpholin-4-carbonyl)phenyl)amino)-1-methyl-6-oxo-1,6-dihydropyridin-3-yl)-2-methylphenyl)-4-(tert-butyl)benzamide] |
| – | – | 5.5 | 4.8 | 2.2 | 7.3 | 2.1 | 3.5 | 6.6 | 7.1 | 4.5 | 3.4 | 3 | 4.7 | 5.3 | 6.3 | 0.0047 | 0.185 | C=CC(=O)Nc1cc(Nc2cc(-c3cccc(NC(=O)c4ccc(C(C)(C)C)cc4)c3C)cn(C)c2=O)ccc1C(=O)N1CCOCC1 [Compound 1, N-(3-(5-((3-acrylamide-4-(morpholin-4-carbonyl)phenyl)amino)-1-methyl-6-oxo-1,6-dihydropyridin-3-yl)-2-methylphenyl)-4-(tert-butyl)benzamide] |
